Measurements as given in US5101059A, “Amino acid protecting groups” (Research Corporation Technologies, Inc., priority 1989, dated 1992).

Columns and labels:
Assay type in all cases: physicochemical
[1] = Stability of xanthenylmethyl and dihydroanthracenylmethyl derivatives in trifluoroacetic acid; settings: TFA 40 eq., deuterated chloroform, room temperature, 3 days
Experimental: 3. Stability of Xanthenylmethyl p-Chlorocarbanilate in Trifluoroacetic Acid: To a solution of 35.61 mg of Xmoc-PCA in 0.2 mL of deuterated chloroform was added 0.3 mL (40 eq.) of trifluoroacetic acid. The mixture was transferred to an NMR tube and allowed to stand at room temperature. The reaction was monitored by NMR spectroscopy (Varian A-60A, 60 MHz) and TLC with an eluant consisting of Skelly B--ethyl acetate (4:1). No change was noted after 3 days.
4. Stability of 9-Xanthenylmethyl Phenylacetate in Trifluoroacetic Acid: To a solution of 21.4 mg of 9-XM phenylacetate in 0.2 mL of deuterated chloroform was added 0.2 mL (40 eq.) of trifluoroacetic acid. The mixture was transferred to an NMR tube and let stand at room temperature. The reaction was monitored by NMR (Varian A-60A, 60 MHz) spectroscopy and TLC analysis with an eluant consisting of Skelly B--ether (2:1). No change was noted after 3 days.
1. Stability of 9,10-Dihydro-9-anthracenylmethyl p-Chlorocarbanilate in Trifluoroacetic Acid: To a solution of 23.61 mg of DHAmoc-PCA in 0.2 mL of deuterated chloroform was added 0.2 mL (40 eq.) of trifluoroacetic acid. The mixture was transferred to an NMR tube and allowed to stand at room temperature. The reaction was monitored by NMR spectroscopy (Varian A-60A, 60 MHz) and TLC with an eluant consisting of Skelly B--EtOAc (3:1). No change was noted after 4 days.

[2] = Base deblocking and stability of 9-xanthenylmethyl and 9,10-dihydro-9-anthracenylmethyl derivatives; settings: room temperature
Experimental: 1. Deblocking of Xmoc-PCA in 1,5,9-Triazabicyclo[4,4,0]dec-5-ene Solution: To a solution of 7.90 mg (0.0216 mmol) of Xmoc-PCA in 0.6 mL of pyridine was added 0.15 g (1.078 mmol 50 eq.) of 1,5,9-triazabicyclo[4,4,0]dec-5-ene (TBD). The mixture was stirred at room temperature and monitored by TLC with an eluant consisting of Skelly B--EtOAc (3:1). Complete deblocking had occurred after 25 minutes.
2. Base Deblocking of 9-Xanthenylmethyl Phenylacetate: a. In Piperdine Solution: To a solution of 13.39 mg of 9-XM-phenylacetate in 1.6 mL of DMF was added 0.4 mL (100 eq.) of piperidine. The mixture was stirred at room temperature. […] In DBU Solution: To a solution of 6.36 mg of 9-XM-phenylacetate in 0.9 mL of DMF was added 0.3 mL of 1,8-diazabicyclo[5,4,0]-undec-7-ene (DBU) (100 eq.). The mixture was stirred at room temperature. […] In TBD Solution: To a solution of 7.91 mg of 9-XM-phenylacetate in 0.3 mL of pyridine was added 100 mg (30 eq.) of 1,5,9-triazabicyclo[4,4,0]dec-5-ene. The mixture was stirred at room temperature.
1. General Procedure for Studying the Stabilities of DHAmoc-PCA, Xmoc-PCA, and DC-Xmoc-PCA in Piperidine Solution To a solution of urethane (0.0294 mmol) in 1.2 mL of DMF was added 0.3 mL (2.94 mmol, 100 eq.) of piperidine. The mixture was stirred at room temperature and monitored by TLC with an eluant consisting of Skelly B--EtOAc (3:1). Evidence for initiation of the deblocking required 2 minutes for DC-Xmoc-PCA, 3.5 hours for Xmoc-PCA, and 7 hours for DHAmoc-PCA.
2. General Procedure for Studying the Deblocking of Xmoc-PCA and DHAmoc-PCA in DBU Solution: To a solution of urethane (0.0324 mmol) in 0.5 mL of DMF was added 0.5 mL (3.24 mmol, 100 eq.) of 1,8-diazabicyclo[5,4,0]undec-7-ene. The mixture was stirred at room temperature and monitored by TLC with the eluant consisting of Skelly B--EtOAc (3:1). The time needed to complete the deblocking was 3.5 hours for Xmoc-PCA, and 6 hours for DHAmoc-PCA.

[3] = Stability of substituted Fmoc-aniline to catalytic hydrogenation; settings: palladium on charcoal, hydrogen 1 atm, 20 hours
Experimental: 1. Deblocking of 2,7-Bistrimethyl-silyl)-9-fluorenylmethyl Carbanilate: To a solution of 0.2 g BTS-Fmoc-aniline in 15 mL of 100% ethanol and 15 mL of EtOAc was added 20 mg of 10% palladium on charcoal at 0° C. The heterogeneous mixture was stirred under a hydrogen atmosphere (1 atm) for 20 hours. The catalyst was filtered and rinsed with EtOAc (2×5 mL). The combined filtrate was washed with sat'd NH4 Cl (2×20 mL), water (20 mL), and dried over anhydrous MgSO4. After evaporating the solvent in vacuo, the residue (0.14 g) was recrystallized from 95% ethanol to afford 0.11 g (78.0%) of 2,7-bis(trimethylsilyl)-9-methylfluorene as white needles, m.p. 106.5°-108° C., identified by mixture melting point, IR, and NMR spectral comparison with an authentic sample obtained as described above.
2. Stability of 9-Trimethylsilyl-9-fluorenylmethyl Carbanilate Towards Catalytic Hydrogenation: To a mixture of 0.15 g of TMS-Fmoc-analine and 0.15 g of BTS-Fmoc-analine in 20 mL of ethyl acetate and 30 mL of 100% ethanol was added 30 mg of […] palladium on charcoal. The mixture was magnetically stirred at room temperature under a hydrogen atmosphere (1 atm) for 20 hours. The catalyst was removed by filtration and rinsed with EtOAc (2×5 mL). […] Recrystallization of the former from 95% ethanol gave 78.3 mg (74.1%) of the pure silane, m.p. 107°-108.5° C. […]

[4] = Solubility of TMS-Fmoc and dichloro-Xmoc derivatives versus Fmoc analogs; settings: in CH2Cl2
Experimental: This latter property is particularly important when peptide synthesis is carried out in solution.

[5] = Stability of substituted Fmoc-PCA in acetic acid; settings: glacial acetic acid 10 eq., CH2Cl2, room temperature, 48 hours
Experimental: 2. […] The mixture was stirred at room temperature for 48 hours. […] The mixture was washed with half sat'd NaHCO3 (2×10 mL) and water (10 mL). […] 161°-163° C., the IR and ^1 H NMR spectra of which matched that of an authentic sample.
3. Stability of 9-Trimethylsilyl-9-[…] p-Chlorocarbanilate in Acetic Acid: To a solution of 0.37 g of TMS-Fmoc-PCA in 10 mL of CH2 Cl2 was added 0.5 mL (10 eq.) of glacial acetic acid. The mixture was stirred at room temperature. […] The mixture was washed with half sat'd NaHCO3 (2×10 mL) and H2 O (10 mL). […] 124°-126° C., the ^1 H NMR and IR spectra of which matched that of an authentic sample.

[6] = Base deblocking of substituted urethanes (U-PCA) by various amines; settings: dichloromethane, room temperature
Text: 1. General Procedure for Studying the Base Deblocking of the Urethanes Fmoc-PCA, BTS-Fmoc-PCA, DT-Fmoc-PCA, and TMS-Fmoc-PCA: A mixture of urethane (0.05 mmol) in a solution prepared from an equal volume of base (2.5 mmol, 50 eq.) and dichloromethane was stirred at room temperature. The course of the reaction was monitored by TLC with an eluant consisting of Skelly B--ether (3:1).

[7] = Deblocking of R-Fmoc-aniline by fluoride ion; settings: tetra-n-butylammonium chloride 3.0 eq., KF dihydrate 4.1 eq., acetonitrile, room temperature
Experimental: 3. General Procedure for Studying the Deblocking of Urethanes R-Fmoc-aniline (R=TMS, DMPS, DPMS, TIPS, DT-TMS) by Reaction with Fluoride Ion: To a solution of urethane (0.0513 mmol) in 0.7 mL of acetonitrile was added 45 mg (0.154 mmol, 3.0 eq.) of tetra-n-butyl-ammonium chloride and 20 mg (0.213 mmol, 4.1 eq.) of potassium fluoride dihydrate. The mixture was stirred at room temperature, the reaction being monitored by TLC with an eluant consisting of Skelly B--CH2 Cl2 (1:1).

[8] = Deblocking of R-Fmoc-aniline by trifluoroacetic acid; settings: room temperature
Text: 1. General Procedure for Studying the stability of R-Fmoc-analine (R=TMS, DMPS, DPMS, DT-TMS, TIPS) in Trifluoroacetic Acid: To a solution of urethane (0.026 mmol) in […].) of trifluoroacetic acid. The mixture was stirred at room temperature and the course of the reaction was monitored by TLC with an eluant consisting of Skelly B--dichloromethane (1:1) to note the time needed for complete deblocking of the urethanes.

[9] = Base deblocking of R-Fmoc-aniline by various amines; settings: room temperature
Experimental: 2. General Procedure for Studying the Base Deblocking of the Urethanes R-Fmoc-aniline (R=TMS, DMPS, DPMS, DT-TMS, TIPS): A solution of urethane (0.05 mmol) in a sample of redistilled base (5 mmol, 100 eq.) was allowed to stand at room temperature. The reaction was monitored periodically by TLC with an eluant consisting of Skelly B--CH2 Cl2 (1:1). No reaction occurred according to the TLC test for urethanes having R=TIPS in the case of any of the bases tested after 24 hours.

[10] = Base deblocking of 9-xanthenylmethoxycarbonyl-L-phenylalanine; settings: room temperature
Experimental: A. Base Deblocking of 9-Xanthenylmethoxycarbonyl-L-phenylalanine: 1. In DBU Solution: To a solution of 13.08 mg of Xmoc-Phe-Oh in 0.5 mL of DMF was added 0.5 mL of 1,8-diazabicyclo[5,4,0]-undec-7-ene (DBU, 100 eq.). The mixture was stirred at room temperature. The reaction was monitored by TLC with an eluant consisting of CHCl3 --CH3 OH--CH3 CO2 H (9:1:0.1). Deblocking was complete after 36 hours. 2. In TBD Solution: To a solution of 7.25 mg of Xmoc-Phe-OH in 0.1 mL of pyridine and 0.1 mL of DMF was added 50 mg (20 eq.) of 1,5,9-triazabicyclo[4,4,0]dec-5-ene (TBD). The mixture was stirred at room temperature and monitored by TLC with an eluant consisting of CHCl3 --CH3 OH--CH3 CO2 H (9:1:0.1). Deblocking was complete after 4.5 hours.

[11] = Stability of 9-xanthenylmethyl carbanilate towards catalytic hydrogenolysis; settings: 5% Pd/C and palladium acetate, 40 psi hydrogen, 24 hours
Experimental: 5. Stability of 9-Xanthenylmethyl Carbanilate Towards Catalytic Hydrogenolysis: To a solution of 300 mg of Xmoc-aniline in 30 mL of EtOAc and 10 mL of 100% EtOH was added 30 mg of 5% palladium on charcoal and 30 mg of palladium acetate. The mixture was shaken under hydrogen at a pressure of 40 psi in a Parr apparatus for 24 hours. […] 178°-181° C., the ^1 H NMR and IR spectra of which matched that of an authentic sample.

O=C(Cc1ccccc1)OCC1c2ccccc2Oc2ccccc21 [9-XM-phenylacetate, 9-Xanthenylmethyl Phenylacetate]
stability in trifluoroacetic acid (NMR, TLC) [1]: No change | Time for Complete Deblocking ([2]; DBU 100 eq., DMF): ≤ 90 min | Time for Complete Deblocking ([2]; TBD 30 eq., pyridine): ≤ 27 min | stability in piperidine solution (TLC) ([2]; piperidine 100 eq., DMF, 2 days): no change

C[Si](C)(C)c1ccc2c(c1)C(COC(=O)Nc1ccccc1)c1cc([Si](C)(C)C)ccc1-2 [BTS-Fmoc-aniline, 2,7-Bis(trimethylsilyl)-9-fluorenylmethyl Carbanilate]
product of catalytic hydrogenation (deblocking) [3]: 2,7-bis(trimethylsilyl)-9-methylfluorene

C[Si](C)(C)C1(COC(=O)Nc2ccc(Cl)cc2)c2ccccc2-c2ccccc21 [TMS-Fmoc-PCA, 9-Trimethylsilyl-9-fluorenylmethyl p-Chlorocarbanilate]
solubility relative to that of the Fmoc analog [4]: 16 times | soluble to the extent of (solubility) [4]: 53 g/100 mL | recovered urethane [5]: 97.5% | stability in acetic acid (TLC) [5]: no change | Time for Complete Deblocking ([6]; ethanolamine 50 eq.): 150 min | Time for Complete Scavenging of Dibenzofulvene Analogs ([6]; morpholine 50 eq.): 16.5 hr | Time for Complete Deblocking ([6]; morpholine 50 eq., significant aminodibenzofulvene type adduct formed): 780 min | Time for Complete Scavenging of Dibenzofulvene Analogs ([6]; piperidine 50 eq.): 195 min | Time for Complete Deblocking ([6]; piperidine 50 eq., significant aminodibenzofulvene type adduct formed): 129 min | Time for Complete Deblocking ([6]; t-butylamine 50 eq.): > 2900 min

C[Si](C)(C)C1(COC(=O)Nc2ccccc2)c2ccccc2-c2ccccc21 [TMS-Fmoc-aniline, 9-Trimethylsilyl-9-fluorenylmethyl Carbanilate]
Time for Complete Deblocking by Fluoride Ion [7]: 5 min | recovered urethane ([3]; room temperature): 93.3% | Time for Complete Deblocking by Trifluoroacetic Acid [8]: 5 h | Time for Complete Deblocking ([9]; morpholine 100 eq.): 180 min | Time for Complete Scavenging of Dibenzofulvene ([9]; morpholine 100 eq.): 240 min | Time for Complete Deblocking ([9]; piperidine 100 eq.): 100 min | Time for Complete Scavenging of Dibenzofulvene ([9]; piperidine 100 eq.): 300 min | Time for Complete Deblocking ([9]; t-butylamine 100 eq.): 720 min

O=C(N[C@@H](Cc1ccccc1)C(=O)O)OCC1c2ccccc2Oc2ccccc21 [Xmoc-Phe-OH, 9-Xanthenylmethoxycarbonyl-L-phenylalanine]
Time for Complete Deblocking ([10]; DBU 100 eq., DMF): 36 h | Time for Complete Deblocking ([10]; TBD 20 eq., pyridine and DMF): 4.5 h

O=C(Nc1ccccc1)OCC1c2ccccc2Oc2ccccc21 [Xmoc-aniline, 9-Xanthenylmethyl Carbanilate]
recovered urethane [11]: 94.3% | stability towards catalytic hydrogenolysis (TLC) [11]: remained intact
